Laboratory results as given in patent US20250376472A1, “3-(PHENYLSULFONYL)-[1,2,3]TRIAZOLO[1,5A]QUINAZOLIN-5(4H)-ONE DERIVATIVES” (priority 2022, published 2025).

Target: T1, AgrA (Staphylococcus aureus, UniProt P0A0I7)
T1 construct: endogenous in cells; host or cells: S. aureus USA300 strain UAMS-1625 carrying a P3-lacZ reporter plasmid
Test: cell-based
Set-up: species or system S. aureus
Details: for Ratio IC50 (in presence of HSA)/IC50 (in absence of HSA): 40 mg/mL HSA versus no HSA
Experimental: The inventive compounds are 3-(phenylsulfonyl)-[1,2,3]triazolo[1,5a]quinazolin-5(4h)-one derivatives comprising an N-bound piperazine or homopiperazine at the 8-position of the [1,2,3]triazolo[1,5a]quinazolin-5(4h)-one core, further substituted (on the second nitrogen atom) by an (optionally substituted) acetyl or propionyl amide group. […] Specifically, the reporter gene lacZ (which encodes the protein product β-galactosidase) was transfected into S. aureus with a plasmid under control of the P3 promoter. The compounds were serially diluted in lysogeny broth (LB), and incubated with S. aureus. Following incubation, the S. aureus cells were lysed and treated with 4-methylumbelliferyl-galactopyranoside (MUG). The β-galactosidase produced by expression of lacZ cleaved the MUG into galactopyranose and 4-methylumbelliferone, which was measured by fluorescence.
The resulting reporter strain was used to measure AgrA inhibitory activity as follows. From an overnight culture plate, cells were resuspended in 0.9% (w/v) saline solution and bacterial inoculum was prepared in LB medium with 5×10^5 CFU/ml. Compounds were two-fold serially diluted in LB and 50 μL of this 10× concentrated samples were added into the 96-deep well plate. 500 μL of bacterial suspension was finally added to the compounds or DMSO control. Plates were covered and incubated with shaking at 37° C. After 18 hours incubation, 100 μL was transferred to a new clear 96-well plate and the OD600 was measured using a TECAN Infinite F200 microplate reader to control for growth inhibition. Another 100 μL was transferred to a new black 96-well plate containing 30 μL of lysis buffer (20 mM Tris/HCl, 3 mM MgCl2, 0.5% Tween 20 (v/v), 0.5% NP-40 (v/v)) and the plate was incubated with shaking at 37° C. for 60 min. 20 μL of the substrate MUG (4-Methylumbelliferyl O-D-galactopyranoside) at 0.25 mg/ml was added and the fluorescence (excitation: 360 nm, emission: 450 mu) was measured with a TECAN Infinite F200 microplate reader after 3 hours incubation at 37° C. with shaking. The IC50 was determined using GraphPad PRISM after normalization to DMSO control.

[1] = LB medium supplemented with human serum albumin 40 mg/mL
[2] = LB medium, no human serum albumin, 18 hours incubation
[3] = IC50 at 40 mg/mL HSA, LB medium supplemented with human serum albumin 40 mg/mL
[4] = IC50 without HSA, LB medium, no human serum albumin, 18 hours incubation

T1 sequence (P0A0I7 whole entry): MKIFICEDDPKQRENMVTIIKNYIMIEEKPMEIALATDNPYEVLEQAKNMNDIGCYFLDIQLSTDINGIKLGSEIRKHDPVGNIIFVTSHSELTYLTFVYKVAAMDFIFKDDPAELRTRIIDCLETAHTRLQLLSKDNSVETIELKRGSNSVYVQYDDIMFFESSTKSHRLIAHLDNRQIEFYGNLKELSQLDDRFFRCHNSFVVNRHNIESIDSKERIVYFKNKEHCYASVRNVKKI

| Structure (SMILES) | Ratio IC50 (in presence of HSA)/IC50 (in absence of HSA) | IC50 at 40 mg/mL HSA [1] | IC50 without HSA [2] | IC50 [3] [µM] | IC50 [4] [µM] |
| --- | --- | --- | --- | --- | --- |
| Cc1ccc(S(=O)(=O)c2nnn3c2[nH]c(=O)c2ccc(N4CCN(CC(=O)N5C(C)CCC5C)CC4)cc23)c(C)c1 (stereo not shown) [Compound 74] | +++ (+++: ratio ≤ 25) | ++ (++: 10 μg/mL < IC50 ≤ 50 μg/mL) | +++ (+++: IC50 ≤ 1 μg/mL) | – | – |
| Cc1ccc(S(=O)(=O)c2nnn3c2[nH]c(=O)c2ccc(N4CCCN(CC(=O)NC5CCOCC5)CC4)cc23)c(C)c1 [Compound 103] | – | – | – | < 16.8 | 1.68 to 8.42 |
| Cc1ccc(S(=O)(=O)c2nnn3c2[nH]c(=O)c2ccc(N4CCN(CC(=O)N5CCN6CCOCC6C5)CC4)cc23)c(C)c1 (stereo not shown) [Compound 129] | +++ (+++: ratio ≤ 25) | +++ (+++: IC50 ≤ 10 μg/mL) | +++ (+++: IC50 ≤ 1 μg/mL) | – | – |
| Cc1ccc(S(=O)(=O)c2nnn3c2[nH]c(=O)c2ccc(N4CCN(CC(=O)N5CCC6(CCCC6)C5)CC4)cc23)c(C)c1 [Compound 126] | – | – | – | 16.6 to 82.8 | < 1.66 |
| Cc1ccc(S(=O)(=O)c2nnn3c2[nH]c(=O)c2ccc(N4CCN(CC(=O)N5CCC(O)C5)CC4)cc23)c(C)c1 (stereo not shown) [Compound 75] | +++ (+++: ratio ≤ 25) | ++ (++: 10 μg/mL < IC50 ≤ 50 μg/mL) | ++ (++: 1 μg/mL < IC50 ≤ 5 μg/mL) | – | – |
| Cc1ccc(S(=O)(=O)c2nnn3c2[nH]c(=O)c2ccc(N4CCN(CC(=O)N5CCCC6(CCN(C)CC6)C5)CC4)cc23)c(C)c1 [Compound 128] | – | – | – | 15.5 to 77.3 | 1.55 to 7.73 |
| Cc1ccc(S(=O)(=O)c2nnn3c2[nH]c(=O)c2ccc(N4CCN(CC(=O)NC5CCC(O)CC5)CC4)cc23)c(C)c1 (stereo not shown) [Compound 43] | – | – | – | < 16.8 | < 1.68 |
| Cc1ccc(S(=O)(=O)c2nnn3c2[nH]c(=O)c2ccc(N4CCN(CC(=O)N5CCCC(N)C5)CC4)cc23)c(C)c1 (stereo not shown) [Compound 143] | +++ (+++: ratio ≤ 25) | +++ (+++: IC50 ≤ 10 μg/mL) | ++ (++: 1 μg/mL < IC50 ≤ 5 μg/mL) | – | – |
| C#CCNC(=O)CN1CCN(c2ccc3c(=O)[nH]c4c(S(=O)(=O)c5ccc(C)cc5C)nnn4c3c2)CC1 [Compound 23] | – | – | – | < 18.7 | 1.87 to 9.37 |
| Cc1ccc(S(=O)(=O)c2nnn3c2[nH]c(=O)c2ccc(N4CCN(CC(=O)N5CCCOCC5)CC4)cc23)c(C)c1 [Compound 57] | – | – | – | 17.3 to 86.3 | < 1.73 |
| Cc1ccc(S(=O)(=O)c2nnn3c2[nH]c(=O)c2ccc(N4CCN(CC(=O)N5CCC(CN)C5)CC4)cc23)c(C)c1 (stereo not shown) [Compound 137] | – | – | – | 17.3 to 86.4 | 1.73 to 8.64 |
| Cc1ccc(S(=O)(=O)c2nnn3c2[nH]c(=O)c2ccc(N4CCN(CC(=O)NCCOCCOCCO)CC4)cc23)c(C)c1 [Compound 22] | – | – | – | 15.9 to 79.7 | 1.59 to 7.97 |
| Cc1ccc(S(=O)(=O)c2nnn3c2[nH]c(=O)c2ccc(N4CCN(CC(=O)NC5CCCCC5)CC4)cc23)c(C)c1 [Compound 38] | – | – | – | 17.3 to 86.5 | < 1.73 |
| Cc1ccc(S(=O)(=O)c2nnn3c2[nH]c(=O)c2ccc(N4CCCN(CCC(=O)N5CCOCC5)CC4)cc23)c(C)c1 [Compound 168] | +++ (+++: ratio ≤ 25) | +++ (+++: IC50 ≤ 10 μg/mL) | ++ (++: 1 μg/mL < IC50 ≤ 5 μg/mL) | – | – |
| CCCCCCNC(=O)CN1CCN(c2ccc3c(=O)[nH]c4c(S(=O)(=O)c5ccc(C)cc5C)nnn4c3c2)CC1 [Compound 12] | – | – | – | 17.2 to 86.2 | < 1.72 |
| Cc1ccc(S(=O)(=O)c2nnn3c2[nH]c(=O)c2ccc(N4CCN(CC(=O)NC5CCNC5)CC4)cc23)c(C)c1 (stereo not shown) [Compound 136] | – | – | – | 17.7 to 88.5 | 1.77 to 8.85 |
| Cc1ccc(S(=O)(=O)c2nnn3c2[nH]c(=O)c2ccc(N4CCN(CC(=O)NCC5CCN(C)CC5)CC4)cc23)c(C)c1 [Compound 88] | – | – | – | 16.5 to 82.4 | 1.65 to 8.24 |
| Cc1ccc(S(=O)(=O)c2nnn3c2[nH]c(=O)c2ccc(N4CCN(CC(=O)NC5CCOCC5)CC4)cc23)c(C)c1 [Compound 87] | +++ (+++: ratio ≤ 25) | +++ (+++: IC50 ≤ 10 μg/mL) | +++ (+++: IC50 ≤ 1 μg/mL) | – | – |
| Cc1ccc(S(=O)(=O)c2nnn3c2[nH]c(=O)c2ccc(N4CCN(CC(=O)NCCOCCO)CC4)cc23)c(C)c1 [Compound 21] | – | – | – | 17.1 to 85.7 | < 1.71 |
| Cc1ccc(S(=O)(=O)c2nnn3c2[nH]c(=O)c2ccc(N4CCN(CC(=O)N5CCC(F)(F)CC5)CC4)cc23)c(C)c1 [Compound 64] | – | – | – | 16.7 to 83.4 | < 1.67 |

| Structure (SMILES) | Ratio IC50 (in presence of HSA)/IC50 (in absence of HSA) | IC50 at 40 mg/mL HSA [1] | IC50 without HSA [2] | IC50 [3] [µM] | IC50 [4] [µM] |
| --- | --- | --- | --- | --- | --- |
| Cc1ccc(S(=O)(=O)c2nnn3c2[nH]c(=O)c2ccc(N4CCN(CC(=O)NCc5cccc(O)c5)CC4)cc23)c(C)c1 [Compound 108] | – | – | – | 16.6 to 83.1 | < 1.66 |
| Cc1ccc(S(=O)(=O)c2nnn3c2[nH]c(=O)c2ccc(N4CCCN(CC(=O)N5CCCCC5)CC4)cc23)c(C)c1 [Compound 85] | – | – | – | 17.3 to 86.5 | 1.73 to 8.65 |
| Cc1ccc(S(=O)(=O)c2nnn3c2[nH]c(=O)c2ccc(N4CCN(CC(=O)NC5CCCC5)CC4)cc23)c(C)c1 [Compound 35] | – | – | – | < 17.7 | < 1.77 |
| Cc1ccc(S(=O)(=O)c2nnn3c2[nH]c(=O)c2ccc(N4CCN(CC(=O)NCCn5cccc5)CC4)cc23)c(C)c1 [Compound 115] | – | – | – | 17 to 84.9 | < 1.7 |
| Cc1ccc(S(=O)(=O)c2nnn3c2[nH]c(=O)c2ccc(N4CCN(CC(=O)N(C)C)CC4)cc23)c(C)c1 [Compound 8] | – | – | – | 19.1 to 95.5 | < 1.91 |
| Cc1ccc(S(=O)(=O)c2nnn3c2[nH]c(=O)c2ccc(N4CCN(CC(=O)N5CCC(N)C5)CC4)cc23)c(C)c1 (stereo not shown) [Compound 135] | – | – | – | 17.7 to 88.5 | 1.77 to 8.85 |
| CCCCCNC(=O)CN1CCN(c2ccc3c(=O)[nH]c4c(S(=O)(=O)c5ccc(C)cc5C)nnn4c3c2)CC1 [Compound 10] | – | – | – | 17.7 to 88.4 | < 1.77 |
| Cc1ccc(S(=O)(=O)c2nnn3c2[nH]c(=O)c2ccc(N4CCN(CC(=O)NCc5cccnc5)CC4)cc23)c(C)c1 [Compound 111] | – | – | – | 17 to 85.2 | < 1.7 |
| Cc1ccc(S(=O)(=O)c2nnn3c2[nH]c(=O)c2ccc(N4CCN(CC(=O)N5CCC(CN)CC5)CC4)cc23)c(C)c1 [Compound 147] | – | – | – | 16.9 to 84.4 | 1.69 to 8.44 |
| Cc1ccc(S(=O)(=O)c2nnn3c2[nH]c(=O)c2ccc(N4CCN(CC(=O)N5CCCC(=O)CC5)CC4)cc23)c(C)c1 [Compound 72] | – | – | – | 16.9 to 84.5 | < 1.69 |
| Cc1ccc(S(=O)(=O)c2nnn3c2[nH]c(=O)c2ccc(N4CCN(CC(=O)NC5CCN(C)CC5)CC4)cc23)c(C)c1 [Compound 86] | – | – | – | 16.9 to 84.4 | 1.69 to 8.44 |
| Cc1ccc(S(=O)(=O)c2nnn3c2[nH]c(=O)c2ccc(N4CCN(CC(=O)NCCc5ccncc5)CC4)cc23)c(C)c1 [Compound 175] | – | – | – | 16.6 to 83.2 | < 1.66 |
| Cc1ccc(S(=O)(=O)c2nnn3c2[nH]c(=O)c2ccc(N4CCN(CC(=O)N5CCCCC5)CC4)cc23)c(C)c1 [Compound 55] | – | – | – | 17.7 to 88.7 | < 1.77 |
| Cc1ccc(S(=O)(=O)c2nnn3c2[nH]c(=O)c2ccc(N4CCN(CC(=O)NC5CC5)CC4)cc23)c(C)c1 [Compound 33] | – | – | – | 18.7 to 93.3 | < 1.87 |
| Cc1ccc(S(=O)(=O)c2nnn3c2[nH]c(=O)c2ccc(N4CCN(CC(=O)N5CCN(C)CC5)CC4)cc23)c(C)c1 [Compound 58] | – | – | – | 17.3 to 86.4 | < 1.73 |
| Cc1ccc(S(=O)(=O)c2nnn3c2[nH]c(=O)c2ccc(N4CCN(CC(=O)NCc5ccco5)CC4)cc23)c(C)c1 [Compound 113] | – | – | – | 17.4 to 86.9 | < 1.74 |
| Cc1ccc(S(=O)(=O)c2nnn3c2[nH]c(=O)c2ccc(N4CCN(CC(=O)N5CCCCCC5)CC4)cc23)c(C)c1 [Compound 56] | ++ (++: 25 < ratio ≤ 125) | ++ (++: 10 μg/mL < IC50 ≤ 50 μg/mL) | +++ (+++: IC50 ≤ 1 μg/mL) | – | – |
| Cc1ccc(S(=O)(=O)c2nnn3c2[nH]c(=O)c2ccc(N4CCN(CC(=O)N5CCCC(O)C5)CC4)cc23)c(C)c1 (stereo not shown) [Compound 67] | – | – | – | 17.3 to 86.3 | 1.73 to 8.63 |
| O=C(CN1CCN(c2ccc3c(=O)[nH]c4c(S(=O)(=O)c5ccc(C(F)(F)F)cc5)nnn4c3c2)CC1)N1CCCC1 [Compound 164] | – | – | – | 17 to 84.8 | 1.7 to 8.48 |
